Laboratory results as given in patent publication US10245256B2, “Nitroxides for use in treating or preventing diabetes and obesity” (Mitos Pharmaceuticals, Inc., priority 2005, dated 2019).

Legend:
[1] = tested on: Keratinocyte Growth Factor (Fibroblast Growth Factor 7); assay: Gene expression in cardiac tissue of mice fed Tempol, chip-based microarray; format: in vivo; conditions: 5 mg/g of food from 14 to 31 months
Experimental: To assess the effects of Tempol on gene expression, Tempol was administered to experimental mice at a dose of 5 mg/g of food from 14 months to 31 months after birth. Mice receiving the same food without the addition of Tempol were used as a negative control. At the age of 31 months, the experimental animals were sacrificed and the hearts were surgically removed. The expression of a broad spectrum of genes in the cardiac tissue was assessed using chip-based microarray technology. Such chips are well known in the art and are widely used to assess gene expression.

[2] = tested on: keratinocyte growth factor; assay: Protein level of keratinocyte growth factor in pancreatic ductal cells of patient after Tempol treatment; format: in vivo, human; conditions: 1500 mg per day for 180 days
Experimental: (§1) A 70-kilogram diabetic patient is administered a dose of 1500 mg of Tempol per day for 180 days. This may be administered in a single dose, or may be administered as a number of smaller doses over a 24-hour period: for example, three 500-mg doses at eight-hour intervals. Following treatment, the protein level of keratinocyte growth factor in the pancreatic ductal cells, and the serum level of adiponectin, is increased.
as §1, with “70-kilogram” for “70-kilogram diabetic”, “patient at risk for but not yet diagnosed with diabetes” for “patient”

adiponectin = assay: Serum level of adiponectin of patient after Tempol treatment; format: in vivo, human; conditions: 1500 mg per day for 180 days
Experimental: as §1
as §1, with “70-kilogram” for “70-kilogram diabetic”, “patient at risk for but not yet diagnosed with diabetes” for “patient”

[3] = tested on: Adiponectin, C1Q and collagen domain containing (ADIPOQ); assay: Gene expression in adipose tissue of mice fed Tempol, Affymetrix MOE430A 2.0 array; format: in vivo; conditions: 5 g/kg of diet from 12 through 15 months
Experimental: In a further gene expression study, Tempol was administered to experimental mice at a dose of 5 g/kg of diet from 12 months through 15 months. Mice receiving the same diet without the addition of Tempol were used as a negative control. At the age of 15 months, the adipose tissue of the experimental animals was obtained. The expression of a broad spectrum of genes in the adipose tissue was assessed using chip-based microarray technology. Specifically, in this case an Affymetrix MOE430A 2.0 array, containing 12,960 genes, was employed. Such chips are well known in the art and are widely used to assess gene expression.

[4] = 70-kilogram patient at risk for but not yet diagnosed with diabetes

For CC1(C)CC(O)CC(C)(C)N1[O] [Tempol, 4-hydroxy-2,2,6,6-tetramethylpiperidine-1-oxyl], the “KGF expression, TEMPOL-treated mouse tp51” value ([1]; microarray signal, individual animal tp51) was 13, the “KGF expression, TEMPOL-treated mouse tp52” value ([1]; microarray signal, individual animal tp52) was 52 and the “KGF expression, TEMPOL-treated mouse tp53” value ([1]; microarray signal, individual animal tp53) was 96. For the same molecule, the “Fold change of KGF expression” value ([1]; TEMPOL-treated vs control mice) was 2.1 fold, the “protein level of keratinocyte growth factor in the pancreatic ductal cells” value ([2]; 70-kilogram diabetic patient) was “increased” and the “protein level of keratinocyte growth factor in the pancreatic ductal cells” value [2, 4] was “increased”. For the same molecule, the “serum level of adiponectin” value (adiponectin; 70-kilogram diabetic patient) was “increased”, the “serum level of adiponectin” value (adiponectin; [4]) was “increased” and the “Mean adiponectin expression (Tempol-treated mice)” value ([3]; microarray signal, control mean 27698) was 33876. The “Fold change of adiponectin expression” value ([3]; Tempol-treated vs control mice, P value 0.003) was “increase in expression”.
